Measured values taken from EP2292225A1 (priority 1997, dated 1998).
Where “and” joins values, the source holds several entries; their conditions need not be identical. Equal entries are not always repeated. Entries after “also recorded” stand apart in the source; their conditions may differ.

Columns and labels:
[1] = system: Vascular smooth muscle (BO54) cells; format: cell-based, baboon
[2] = system: balloon traumatized rabbit carotid artery; format: in vivo; conditions: rabbit, in vivo
[3] = system: left carotid artery; conditions: rat, in vivo
[4] = system: left carotid artery; assay: Periadventitial delivery of crystals in pluronic gel after balloon trauma; format: in vivo, rats
Description: To further evaluate the efficacy of crystalline taxol to inhibit neointimal formation in rats, four groups of 5-6 adult male rats underwent balloon trauma of the left carotid artery followed immediately by periadventitial delivery of 1, 0.1,0.01 or 0 mg of taxol crystals in 500 mg of a pluronic polymer in gel matrix. Fourteen days later, the rats were sacrificed, serum was collected and their carotid arteries were processed for histologic and morphometric analysis.

[5] = Human liver slices distribution and metabolism study (HPLC); format: in vitro ADME; conditions: for % Activity in Media / % Activity in Tissue: 37°C
Description: (§1) ^3H-cytochalasin B (2 µg; 30 µCi/µg) was injected i.v. into BALB/c mice having urinary bladders that had been externally ligated. Animals were sacrificed at 15 minutes, 30 minutes, 2 hours or 16 hours post-injection. Organs were removed, blotted, weighed, air dried and assayed for radioactivity. Fifty - 73% of the total injected dose was accounted for in the tissues sampled (blood, heart, brain, muscle, bone, lung, liver, spleen, stomach, kidney, intestines, and urinary bladder). Clearance of ^3H-cytochalasin B from the blood was extremely rapid with less than 1% of the injected dose in circulation by 15 minutes. […] Cytochalasin B Metabolism. ^3H-cytochalasin B at a dose of 1.5 or 8 µg/ml was mixed with viable or non-viable human liver slices and media, and the amount of ^3H-cytochalasin B in media or tissue assessed by HPLC (Tables 8 and 9).

[6] = MTT activity in human liver slices after 24 hour exposure; format: cell-based; conditions: for MTT Absorbance: 24 hours, mean +/- standard deviation of triplicate liver samples
Description: The cytotoxity of ^3H-cytochalasin B and its subsequent metabolites was also assessed by evaluating dose dependent changes in mitochondrial function by monitoring 3-[4, 5-dimethylthiazol-2yl]-2, 5-diphenyltetrazolium bromide (MTT) activity following a 24 hour exposure of human liver slices to the test agent (Table 10).

[7] = Tissue distribution after intravascular delivery of crystals; format: in vivo, swine; conditions: 10 µg/ml crystals in saline (saturated), three minutes under 1 atm
Description: The in vivo tissue distribution of cytochalasin B administered in crystalline form was evaluated in balloon traumatized swine femoral arteries after local delivery. A femoral artery of a Yorkshire crossbred swine was balloon traumatized by overinflation and rotation of a Vascu-Flo™ Silicone embolectomy catheter. Balloon trauma was immediately followed by intravascular delivery of 10 µg/ml ^3H-cytochalasin B crystals (Sigma Chemical Co., St. Louis, MO) in saline (saturated) for three minutes under 1 atm of pressure. Blood flow was resumed in the artery for five minutes prior to sacrifice of the animal.

[8] = Biodistribution of ^3H-cytochalasin B i.v.; format: in vivo, BALB/c mice
Description: as §1

[9] = 1.5 µg/ml, Media/viable tissue, 1/4/24 Hours = r5/r6/r7
[10] = 1.5 µg/ml, Media/viable tissue, 1/4/24 Hours = r2/r3/r4
[11] = 8 µg/ml, Media/boiled tissue, 1/4/24 Hours = r8/r9/r10
[12] = 8 µg/ml, Media/viable tissue, 1/4/24 Hours = r2/r3/r4
[13] = 8 µg/ml, Media/viable tissue, 1/4/24 Hours = r5/r6/r7

## CC(=O)O[C@@H]1/C=C\[C@@](C)(O)C(=O)[C@@H](C)C/C=C\[C@H]2[C@H](O)C(C)=C(C)[C@H]3C(Cc4ccccc4)NC(=O)[C@]132 (stereo partly drawn) [cytochalasin C]
[1]
  minimum effective dose (MED), DNA synthesis assay: 0.01 µg/mL

## O=[N+]([O-])OCC(CO[N+](=O)[O-])O[N+](=O)[O-] [nitroglycerin]
[1]
  therapeutic range (area under the curve of ^3H-leucine assay greater than ^3H-thymidine assay): available therapeutic range

## CN[C@@H]1C[C@H]2O[C@@](C)([C@@H]1OC)n1c3ccccc3c3c4c(c5c6ccccc6n2c5c31)C(=O)NC4 [staurosporin]
[1]
  therapeutic range (area under the curve of ^3H-leucine assay greater than ^3H-thymidine assay): available therapeutic range

## Cc1ccc(C(=O)Nc2ccc(S(=O)(=O)O)c3cc(S(=O)(=O)O)cc(S(=O)(=O)O)c23)cc1NC(=O)c1cccc(NC(=O)Nc2cccc(C(=O)Nc3cc(C(=O)Nc4ccc(S(=O)(=O)O)c5cc(S(=O)(=O)O)cc(S(=O)(=O)O)c45)ccc3C)c2)c1 [suramin]
[1]
  therapeutic range (area under the curve of ^3H-leucine assay greater than ^3H-thymidine assay): available therapeutic range

## CC(=O)O[C@H]1C(=O)[C@@]2(C)[C@H]([C@H](OC(=O)c3ccccc3)[C@]3(O)C[C@H](OC(=O)[C@H](O)[C@@H](NC(=O)c4ccccc4)c4ccccc4)C(C)=C1C3(C)C)[C@]1(OC(C)=O)CO[C@@H]1C[C@@H]2O [taxol]
[2]
  intimal proliferation: no intimal or adventitial proliferation; also recorded: no intimal proliferation; also recorded: only minimal intimal proliferation
[3]
  morphometry compared to untreated control animals: statistically significantly larger luminal areas and no neointimal proliferation
  toxicity at the surgical site: significant toxicity at the surgical site
[4]; 0.01 mg crystals in 500 mg pluronic gel
  myonecrosis of the adjacent skeletal muscle (animals): 0/4
[4]; 0.1 mg crystals in 500 mg pluronic gel
  myonecrosis of the adjacent skeletal muscle (animals): 1/5
[4]; 1 mg crystals in 500 mg pluronic gel
  myonecrosis of the adjacent skeletal muscle (animals): 3/3
[4]; 1 mg crystals in 500 mg pluronic gel, too few animals for statistics
  neointimal area less than that of control animals: 38%
[4]; 0.1 and 0.01 mg, did not reach statistical significance
  neointimal area and neointimal/medial ratio compared to control animals: a reduction in their neointimal area and neointimal/medial ratio was observed
[4]; crystals in pluronic gel
  toxicity by dose group: no (0.01 mg), minimal (0.1 mg) or limited (1.0 mg) toxicity

## ^3H-cytochalasin B
[5]; [9]
  % Extractable Activity: 99.5% and 99.4% and 99.6%
  %Non extractable Activity: 0.5% and 0.6% and 0.4%
[5]; [10]
  % Activity in Media: 84% and 91%
  % Activity in Tissue: 16% and 9%
[5]; 8 µg/ml, Media Only, 1/4/24 Hours = r11/r12/r13
  % Metabolized of Extractable Activity: 5% and 4%
[5]; [11]
  % Extractable Activity: 98.7% and 99.5% and 99.0%
  % Metabolized of Extractable Activity: 5%
  %Non extractable Activity: 1.3% and 0.5% and 1%
  % Activity in Media: 87% and 83%
  % Activity in Tissue: 13% and 17%
[5]; [12]
  % Extractable Activity: 99.5% and 99.0% and 98.7%
  %Non extractable Activity: 0.5% and 1% and 1.3%
[5]; [13]
  % Activity in Media: 88% and 84% and 89%
  % Activity in Tissue: 12% and 16% and 11%
[5]; within 24 hours
  metabolized: 98%
[6]; 0.1 µg/ml
  MTT Absorbance: 0.844 +/- 0.014
[6]; 1.5 µg/ml
  MTT Absorbance: 0.841 +/- 0.081
[6]; 8.0 µg/ml
  MTT Absorbance: 0.850 +/- 0.082
[6]; 24 hour exposure
  cytotoxicity of ^3H-cytochalasin B or its subsequent metabolites: not cytotoxic
[7]
  amount delivered: 31 µg
  tissue distribution: localized predominantly to the adventitia
[8]; by 16 hours
  ^3H activity in all tissues: below 1.5 % injected dose per gram of tissue
[8]; mouse, in vivo
  retention of ^3H activity: Only liver, skeletal muscle and intestines showed significant retention
